Consider one compound from ChEMBL document CHEMBL1159000, “Anti-AIDS agents, 4. Tripterifordin, a novel anti-HIV principle from Tripterygium wilfordii: isolation and structural elucidation” (J Nat Prod, 1992).

For series [1], the system named is Human immunodeficiency virus 1. Nature of the series: Antiviral activity against HIV1 3B replication in human H9 cells after 1 hr by p24 antigen capture assay. The series is classed as functional, organism-based. The note with it: Human immunodeficiency virus 1, 3B, H9, 1 h.
In another series the test system is H9. Nature of the series: Inhibition human H9 cell growth assessed as cell density at 15 uM after 3 days by cell count assay. The series is classed as cell-based. The note with it: h9, 72 h.

Converted amounts (≈) assume the structure as drawn.

Turning to `C[C@@]1(O)C[C@@]23CC[C@H]4[C@@]5(CCC[C@]4(C)C(=O)OC5)[C@@H]2CC[C@H]1C3` [TRIPTERIFORDIN], in series [1], it took 1 µg/mL (≈ 3.14 µM) to reach a half-maximal effect (EC50). Further, the Activity entry with H9 was “Non-toxic”.
